Laboratory results reported in ChEMBL document CHEMBL1134360, “Thiazole and thiadiazole analogues as a novel class of adenosine receptor antagonists” (J Med Chem, 2001).

Tests used:
[1] = biological target: T1, Adenosine receptor A3 (Homo sapiens, UniProt P0DMS8); assay: Displacement of [125I]AB-MECA from human adenosine A3 receptor expressed in HEK 293 cells; type: cell-based, HEK293
T1 sequence (P0DMS8 whole entry): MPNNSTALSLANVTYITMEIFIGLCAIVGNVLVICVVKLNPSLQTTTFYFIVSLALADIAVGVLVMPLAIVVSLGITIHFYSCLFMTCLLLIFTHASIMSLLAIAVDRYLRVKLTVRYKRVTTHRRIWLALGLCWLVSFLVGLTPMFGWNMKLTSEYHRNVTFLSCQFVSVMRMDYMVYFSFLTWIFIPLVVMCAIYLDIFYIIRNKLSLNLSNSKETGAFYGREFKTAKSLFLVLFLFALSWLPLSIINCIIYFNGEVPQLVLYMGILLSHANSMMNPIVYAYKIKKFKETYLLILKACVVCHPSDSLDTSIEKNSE

[2] = biological target: Adenosine receptor A2a (Rattus norvegicus) (UniProt P30543); assay: Displacement of [3H]CGS-21680 or [3H]ZM-241,385 binding in adenosine A2A receptor of rat striatal membrane at 10 uM
Adenosine receptor A2a (Rattus norvegicus), sequence (P30543 whole entry): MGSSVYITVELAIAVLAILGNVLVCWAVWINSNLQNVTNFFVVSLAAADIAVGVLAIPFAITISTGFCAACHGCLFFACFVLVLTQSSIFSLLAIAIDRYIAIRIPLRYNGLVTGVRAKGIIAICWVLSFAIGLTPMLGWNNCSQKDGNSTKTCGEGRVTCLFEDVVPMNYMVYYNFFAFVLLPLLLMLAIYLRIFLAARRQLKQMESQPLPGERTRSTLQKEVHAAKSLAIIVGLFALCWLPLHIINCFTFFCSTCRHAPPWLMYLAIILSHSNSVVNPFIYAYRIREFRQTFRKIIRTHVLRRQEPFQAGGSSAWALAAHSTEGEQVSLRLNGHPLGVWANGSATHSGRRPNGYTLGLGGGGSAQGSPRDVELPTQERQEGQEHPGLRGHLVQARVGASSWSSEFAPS

[3] = biological target: T2, Adenosine receptor A2a (Rattus norvegicus, UniProt P30543); assay: Displacement of [3H]-CGS-21,680 or [3H]ZM-241385 binding in adenosine A2A receptor of rat striatal membrane was determined
T2 sequence (P30543 whole entry): as above

[4] = biological target: T3, Adenosine receptor A1 (Rattus norvegicus, UniProt P25099)
T3 sequence (P25099 whole entry): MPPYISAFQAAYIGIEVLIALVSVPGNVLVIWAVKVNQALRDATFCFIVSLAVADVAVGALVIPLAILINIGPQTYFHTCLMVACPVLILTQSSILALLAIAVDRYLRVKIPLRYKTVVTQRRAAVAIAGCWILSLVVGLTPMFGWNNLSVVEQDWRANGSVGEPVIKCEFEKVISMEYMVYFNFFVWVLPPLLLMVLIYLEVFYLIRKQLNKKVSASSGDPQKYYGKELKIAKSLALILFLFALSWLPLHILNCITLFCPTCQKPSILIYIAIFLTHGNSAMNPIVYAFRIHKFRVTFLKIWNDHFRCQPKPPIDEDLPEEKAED
Description: Displacement of [3H]DPCPX binding to adenosine A1 receptor of rat brain cortical membrane

[5] = biological target: T4, Adenosine receptor A1 (Rattus norvegicus) (UniProt P25099); assay: Percentage displacement of [3H]DPCPX binding in adenosine A1 receptor of rat brain cortical membrane at a concentration of 10 uM
T4 sequence (whole entry): T3 sequence (P25099 whole entry)

[6] = biological target: Adenosine receptor A2a (Rattus norvegicus) (UniProt P30543); assay: Displacement of [3H]ZM-241385 binding in adenosine A2A receptor of rat striatal membrane at a concentration of 10 uM
[7] = biological target: T4, Adenosine receptor A1 (Rattus norvegicus); assay: Displacement of [3H]DPCPX binding in adenosine A1 receptor of rat brain cortical membrane at a concentration of 10 uM
[8] = biological target: Adenosine receptor A2a (Rattus norvegicus) (UniProt P30543); assay: Percentage displacement of [3H]-CGS- 21680 binding in adenosine A2A receptor of rat striatal membrane at a concentration of 10 uM
[9] = biological target: Adenosine receptor A2a (Rattus norvegicus) (UniProt P30543); assay: Percent displacement of [3H]-CGS- 21680 binding in adenosine A2A receptor of rat striatal membrane at a concentration of 10 uM
[10] = biological target: T2, Adenosine receptor A2a; assay: Displacement of [3H]-CGS- 21680 binding in adenosine A2A receptor of rat striatal membrane
[11] = biological target: T4, Adenosine receptor A1 (Rattus norvegicus); details: 10 uM
Description: Percent displacement of [3H]DPCPX binding in adenosine A1 receptor of rat brain cortical membrane at a concentration of 10 uM

[12] = biological target: T5, Adenosine receptor A3 (Homo sapiens) (UniProt P0DMS8); assay: Displacement of [125I]AB-MECA from adenosine A3 receptor expressed in HEK 293 cells at 10 uM; details: HEK293
T5 sequence (whole entry): T1 sequence (P0DMS8 whole entry)

SMILES | Ki [1] | Displacement [2] | Ki [4] | also measured
COC(=O)C1=C2C=CN(C)C=C2c2nc(-c3ccccc3)nn2C1 | 170 nM |  |  | 
O=C(Nc1nc(-c2ccccc2)ns1)C1CCC(O)CC1 (stereo in doubt; 8n) [listing 1 of 2 here] |  | 41% |  | 
O=C(Nc1nc(-c2ccccc2)ns1)c1ccc(O)cc1 | 130 nM |  | 7.3 nM | Ki [3]: 570 nM
O=C(Nc1nc(-c2ccccn2)cs1)c1ccc([N+](=O)[O-])cc1 |  | 29% |  | 
O=C(Nc1nc(-c2ccccc2)ns1)C1CCCCC1 | 16000 nM | 16% | 1400 nM | 
Cc1ccc(C(=O)Nc2nc(-c3ccccn3)cs2)cc1 | 3200 nM | 44% | 1600 nM | 
O=C(Nc1nc(-c2ccccc2)ns1)c1ccc(Cl)cc1 | 520 nM | 36% | 41 nM | 
COc1ccc(C(=O)Nc2nc(-c3ccccc3)ns2)cc1 | 82 nM |  | 32 nM | Ki [3]: 2300 nM
O=C(Nc1ccccc1)Nc1nc(-c2ccccc2)cs1 | 9900 nM |  |  | Displacement [5]: 37%; Displacement [6]: 19%
O=C(Nc1nc(-c2ccccn2)cs1)c1ccccc1 | 3400 nM |  | 1700 nM | Ki [3]: 8700 nM
COc1ccc(NC(=O)Nc2nc(-c3ccccc3)ns2)cc1 | 3300 nM | 16% |  | Displacement [7]: 44%
O=C(Nc1nc(-c2ccccn2)cc2ccccc12)c1ccccc1 |  |  |  | Displacement [8]: 0%
COc1ccc(C(=O)Nc2cccc(-c3ccccc3)n2)cc1 | 8700 nM | 16% |  | Displacement [7]: 46%
O=C(Nc1nc(-c2ccccn2)cs1)c1ccc(Cl)c(Cl)c1 | 2500 nM | 20% | 1600 nM | 
COc1ccc(C(=O)Nc2nc(-c3ccccn3)cc3ccccc23)cc1 |  |  | > 10000 nM | Displacement [9]: 19%; Ki [10]: > 10000 nM; Displacement [11]: 37%
O=C(O)COc1ccc(C(=O)Nc2nc(-c3ccccc3)ns2)cc1 | 1200 nM |  | 100 nM | Ki [3]: 15000 nM
COc1ccc(C(=O)Nc2cc(-c3ccccc3)[nH]n2)cc1 |  | 16% |  | Displacement [12]: 35%; Displacement [7]: 20%
COc1ccccc1NC(=O)Nc1nc(-c2ccccc2)ns1 |  | 38% |  | Displacement [12]: 20%; Displacement [7]: 27%
COc1ccc(C(=O)Nc2nc(-c3ccccn3)cs2)cc1 | 1800 nM | 40% | 3200 nM | 
O=C(Nc1nc(-c2ccccc2)ns1)c1ccc(I)cc1 | 1100 nM | 19% |  | Displacement [7]: 49%
O=C(Nc1nc(-c2ccccc2)ns1)c1ccccc1 | 410 nM |  | 31 nM | Ki [3]: 4400 nM
Cc1ccc(C(=O)Nc2nc(-c3ccccc3)ns2)cc1 | 140 nM | 38.2% | 30 nM | 
O=C(Nc1nc(-c2ccccn2)cs1)C1CCCC1 | 2100 nM |  | 920 nM | Ki [3]: 1300 nM
COc1ccc(NC(=O)Nc2nc(-c3ccccn3)cs2)cc1 | 147000 nM | 11% |  | Displacement [7]: 4%

SMILES | Ki [1] | Displacement [2] | Ki [4] | also measured
COC1CCC(C(=O)Nc2nc(-c3ccccc3)ns2)CC1 (stereo in doubt; 8k) | 1700 nM |  | 32 nM | Ki [3]: 1900 nM
O=C(Nc1nc(-c2ccccc2)cc2ccccc12)c1ccccc1 | 1200 nM |  | 1200 nM | Displacement [8]: 0%
COc1ccc(C(=O)Nc2nc(-c3ccccc3)ns2)cc1C | 580 nM | 8% |  | Displacement [7]: 48%
O=C(Nc1nc(-c2ccccc2)ns1)C1CCC(O)CC1 (stereo in doubt) [listing 1 of 2 here] |  | 37% |  | 
COc1ccc(C(=O)Nc2cc(-c3ccccc3)ncn2)cc1 | 800 nM | 31% |  | 
O=C(Nc1nc(-c2ccccn2)cs1)c1cccc(Cl)c1 | 4600 nM |  | 1700 nM | Ki [3]: 1300 nM
O=C(Nc1ccccc1)Nc1nc(-c2ccccc2)ns1 | 4000 nM | 48% | 1000 nM | 
O=C(Nc1nc(-c2ccccn2)cs1)c1ccc(Cl)cc1 |  | 30% |  | 
COc1ccc(C(=O)NC2=NN(c3ccccc3)CC2)cc1 |  | 19% |  | Displacement [12]: 41%; Displacement [7]: 26%
COc1ccc(C(=O)Nc2nc(-c3ccccc3)cs2)cc1 | 670 nM |  | 76 nM | Ki [3]: 1900 nM
O=C(Nc1nc(-c2ccccc2)ns1)C1CCC(O)CC1 (stereo in doubt; 8n) [listing 2 of 2 here] | 2700 nM |  | 42 nM | 
COc1ccc(C(=O)Nc2nc(-c3ccccc3)nc3ccccc23)cc1 | 27 nM |  | 1800 nM | Displacement [8]: 44%
CC(C)Oc1ccc(C(=O)Nc2nc(-c3ccccn3)cs2)cc1 | 3700 nM | 44% | 5800 nM | 
O=C(Nc1nc(-c2ccccn2)nc2ccccc12)c1ccccc1 |  |  |  | Displacement [5]: 16%; Displacement [8]: 9%
COc1ccc(C(=O)Nc2cccc(-c3ccccc3)c2)cc1 | 10000 nM | 41% |  | Displacement [7]: 30%
O=C(Nc1nc(-c2ccccc2)ns1)c1ccc([N+](=O)[O-])cc1 |  | 5% |  | Displacement [12]: 28%; Displacement [7]: 34%
COc1ccc(C(=O)Nc2nc(-c3ccccc3)cc3ccccc23)cc1 | 79 nM |  | 3000 nM | Displacement [8]: 35%
O=C(Nc1nc(-c2ccccn2)cs1)c1ccc(I)cc1 |  | 50% |  | 
O=C(Nc1nc(-c2ccccc2)ns1)C1CCC(O)CC1 (stereo in doubt) [listing 2 of 2 here] | 1900 nM |  | 20 nM | 
COC1CCC(C(=O)Nc2nc(-c3ccccc3)ns2)CC1 (stereo in doubt; 8l) | 5300 nM |  | 110 nM | Ki [3]: 2000 nM
Nc1nc2ccc(Cl)cc2c2nc(-c3ccco3)nn12 [CGS-15943] | 140 nM |  |  | 
O=C(Nc1nc(-c2ccccc2)nc2ccccc12)c1ccccc1 | 240 nM |  |  | Displacement [5]: 34%; Displacement [8]: 17%
COc1ccccc1NC(=O)Nc1nc(-c2cccnc2)nc2ccccc12 | 4 nM |  | > 10000 nM | Ki [10]: > 10000 nM
O=C(Nc1ccccc1)Nc1nc(-c2ccccn2)cs1 | 5000 nM |  | 930 nM | Ki [3]: 920 nM
